Structures can show the parent of a compound that is named as a salt.
Legend:
[1] = Solid-state properties of the polymorphs (summary statement); type: physicochemical
[2] = Stability at elevated temperature (XRPD form check and HPLC purity); type: physicochemical; details: for % AUC (Following exposure): HPLC purity after seven days at 60° C.; for % AUC (Control): HPLC purity, control before exposure
Description: Approximately 10 mg of Form A, Form B and Form C were weighed to individual 4-mL amber vials covered with a kimwipe and stored in an oven at 60° C. and ambient pressure. After seven days of exposure, the solids were be analyzed by XRPD to check for form conversion and HPLC for purity (see Table 5).

[3] = Competitive slurry experiments (XRPD); type: physicochemical; details: competitive slurry of Forms A, B and C together, IPA:IBAc (10:90), room temperature
Description: Approximately 10 mg of Form A, B and C were weighed into 2.0-mL vials equipped with a stir bar. 0.5 mL of solvent was added and the resulting free flowing slurry was allowed to equilibrate with stirring at room temperature. Samples were pulled at one day and seven day time points, filtered through 0.45 micron centrifuge filters, dried overnight at room temperature under vacuum and analyzed by XRPD (see Table 7).

[4] = Stability at elevated humidity (XRPD form check); type: physicochemical; details: summary statement
Description: Approximately 30 mg of Form A, Form B and Form C were placed on an XRPD slide and kept inside a glass jar containing a water solution saturated with NaCl. The solution maintains 75% relative humidity inside the jar. The container was covered with aluminum foil to prevent exposure to light. The sample was kept in this environment for seven days at room temperature. After this time period the slide was removed from the chamber and analyzed immediately by XRPD (see Table 4).

E. coli ATCC25922 = test: MIC by broth microdilution (CLSI), AECO001; type: cell-based; details: Escherichia coli, ATCC25922, read-out: Minimum Inhibitory Concentration (MIC) AECO001
Description: (§1) Bacterial isolates were cultivated from −70° C. frozen stocks by overnight passages at 35° C. in ambient air on Mueller-Hinton agar (Beckton Dickinson, Franklin Lakes, N.J.). Clinical isolates tested were obtained from various geographically diverse hospitals in the US and abroad (Focus Diagnostics, Herndon, Va. and JMI, North Liberty, Iowa). Quality control strains were from the American Type Culture Collection (ATCC; Rockville, Md.).
(§2) Minimum Inhibitory Concentrations (MICs) were determined by the broth microdilution method in accordance with the Clinical and Laboratory Standards Institute (CLSI) guidelines. In brief, organism suspensions were adjusted to a 0.5 McFarland standard to yield a final inoculum between 3×10^5 and 7×10^5 colony-forming units (CFU)/mL. Drug dilutions and inocula were made in sterile, cation adjusted Mueller-Hinton Broth (Beckton Dickinson). An inoculum volume of 100 μL was added to wells containing 100 μL of broth with 2-fold serial dilutions of drug. All inoculated microdilution trays were incubated in ambient air at 35° C. for 18-24 h. Following incubation, the lowest concentration of the drug that prevented visible growth (OD600 nm<0.05) was recorded as the MIC. Performance of the assay was monitored by the use of laboratory quality-control strains and levofloxacin, a compound with a defined MIC spectrum, in accordance with CLSI guidelines. […]

[5] = system: clinical isolate of Pseudomonas aeruginosa expressing a normal level of efflux activity; test: MIC by broth microdilution (CLSI), APAE002; type: cell-based; details: read-out: Minimum Inhibitory Concentration (MIC) APAE002
Description: as §1, §2

[6] = system: Pseudomonas aeruginosa ATCC27853; test: MIC by broth microdilution (CLSI), APAE001; type: cell-based; details: ATCC27853, read-out: Minimum Inhibitory Concentration (MIC) APAE001
Description: as §1, §2

[7] = system: Klebsiella pneumoniae ATCC43816; test: MIC by broth microdilution (CLSI), AKPN001; type: cell-based; details: ATCC43816, read-out: Minimum Inhibitory Concentration (MIC) AKPN001
Description: as §1, §2

Row | Compound | Hygroscopicity ([1]; solid) | % AUC (Following exposure) [2] [% AUC] | % AUC (Control) [2] [% AUC] | XRPD Final Form (1 day) [3] | Thermodynamic stability among the three polymorphic forms [1] | Stability to exposure to elevated relative humidity [4] | Stability to prolonged thermal stress ([2]; summary statement) | MIC (E. coli ATCC25922) [µg/mL] | MIC [5] [µg/mL] | MIC [6] [µg/mL] | MIC [7] [µg/mL]
1 | CC(C)(N)[C@H](NC(=O)c1ccc(C#CC#C[C@@H]2C[C@H]2CO)cc1)C(=O)NO [Form A, N—((S)-3-amino-1-(hydroxyamino)-3-methyl-1-oxobutan-2-yl)-4-(((1R,2R)-2-(hydroxymethyl)cyclopropyl)buta-1,3-diynyl)benzamide] | moderately hygroscopic | 94.5 | 99.2 | A + B |  |  |  |  |  |  | 
2 | CC(C)(N)[C@H](NC(=O)c1ccc(C#CC#C[C@@H]2C[C@H]2CO)cc1)C(=O)NO [Form B, N—((S)-3-amino-1-(hydroxyamino)-3-methyl-1-oxobutan-2-yl)-4-(((1R,2R)-2-(hydroxymethyl)cyclopropyl)buta-1,3-diynyl)benzamide] |  | 97.4 | 99.6 | A + B | most thermodynamically stable | exhibited stability | exhibited stability |  |  |  | 
3 | CC(C)(N)[C@H](NC(=O)c1ccc(C#CC#C[C@@H]2C[C@H]2CO)cc1)C(=O)NO [Form C, N—((S)-3-amino-1-(hydroxyamino)-3-methyl-1-oxobutan-2-yl)-4-(((1R,2R)-2-(hydroxymethyl)cyclopropyl)buta-1,3-diynyl)benzamide] |  | 95.5 | 99.0 | A + B | metastable |  |  |  |  |  | 
4 | CC(C)(N)[C@H](NC(=O)c1ccc(C#CC#C[C@@H]2C[C@H]2CO)cc1)C(=O)NO [I (trifluoroacetate salt), N—((S)-3-amino-1-(hydroxyamino)-3-methyl-1-oxobutan-2-yl)-4-(((1R,2R)-2-(hydroxymethyl)cyclopropyl)buta-1,3-diynyl)benzamide trifluoroacetate salt] |  |  |  |  |  |  |  | < 2 | < 2 | < 2 | < 2

Source: US20150203444A1, “POLYMORPHS OF N-((S)-3-AMINO-1-(HYDROXYAMINO)-3-METHYL-1-OXOBUTAN-2-YL)-4-(((1R,2R)-2-(HYDROXYMETHYL)CYCLOPROPYL)BUTA-1,3-DIYNYL)BENZAMIDE” (Achaogen, Inc., priority 2011, published 2015)
